Where two headings read alike, the source gives them in different places.
Tests used:
Type in all cases: cell-based
A control cell lines = test: MTT assay, A control cell lines (lung cancer cell)
Source text: Please refer to Table 1 and FIGS. 4A-4C. According to a MTT assay (Table 1), various cell viabilities of the A control cell lines can be obtained and illustrated in FIG. 4A while the compounds No. 2˜30 are used to treat A control cell lines, wherein A control cell lines are lung cancer cell.

A3 cell lines = test: MTT assay, A3 cell lines (lung cancer stem cell)
Source text: Please to FIG. 4B, various cell viabilities of the A3 cell lines can be obtained through the MTT assay and illustrated in FIG. 4B while the compounds No. 1˜30 are used to treat A3 cell lines, wherein A3 cell lines are lung cancer stem cell.

[1] = MTT assay, HEL299 fibroblast; conditions: human
Source text: Please refer to FIG. 4C, various cell viabilities of the HEL299 cell lines can be obtained through the MTT assay while the compounds No. 1˜30 are used to treat HEL299 cell lines, wherein HEL299 cell lines are fibroblast.

CCRF-CEM = test: NCI in vitro DTP human cell line screen, CCRF-CEM; conditions: Leukemia, 1.00E−5 Molar
Procedure: (§1) Then, a cell toxicity assay of the cancer lines made by National Cancer Institute will be discussed as follows. The cell toxicity assay is performed by choosing ten compounds (existing certification numbers) from the 59 compounds disclosed in the present invention first.

K562 = test: NCI in vitro DTP human cell line screen, K562; conditions: Leukemia, 1.00E−5 Molar
Procedure: as §1

MOLT-4 = test: NCI in vitro DTP human cell line screen, MOLT-4; conditions: Leukemia, 1.00E−5 Molar
Procedure: as §1

RPMI-8226 = test: NCI in vitro DTP human cell line screen, RPMI-8226; conditions: Leukemia, 1.00E−5 Molar
Procedure: as §1

SR = test: NCI in vitro DTP human cell line screen, SR; conditions: Leukemia, 1.00E−5 Molar
Procedure: as §1

HOP-62 = test: NCI in vitro DTP human cell line screen, HOP-62; conditions: Non-Small Cell Lung Cancer, 1.00E−5 Molar
Procedure: as §1

HOP-92 = test: NCI in vitro DTP human cell line screen, HOP-92; conditions: Non-Small Cell Lung Cancer, 1.00E−5 Molar
Procedure: as §1

NCI-H322M = test: NCI in vitro DTP human cell line screen, NCI-H322M; conditions: Non-Small Cell Lung Cancer, 1.00E−5 Molar
Procedure: as §1

NCI-H522 = test: NCI in vitro DTP human cell line screen, NCI-H522; conditions: Non-Small Cell Lung Cancer, 1.00E−5 Molar
Procedure: as §1

COLO 205 = test: NCI in vitro DTP human cell line screen, COLO 205; conditions: Colon Cancer, 1.00E−5 Molar
Procedure: as §1

HCC-2998 = test: NCI in vitro DTP human cell line screen, HCC-2998; conditions: Colon Cancer, 1.00E−5 Molar
Procedure: as §1

HCT-116 = test: NCI in vitro DTP human cell line screen, HCT-116; conditions: Colon Cancer, 1.00E−5 Molar
Procedure: as §1

HCT-15 = test: NCI in vitro DTP human cell line screen, HCT-15; conditions: Colon Cancer, 1.00E−5 Molar
Procedure: as §1

KM12 = test: NCI in vitro DTP human cell line screen, KM12; conditions: Colon Cancer, 1.00E−5 Molar
Procedure: as §1

SW-620 = test: NCI in vitro DTP human cell line screen, SW-620; conditions: Colon Cancer, 1.00E−5 Molar
Procedure: as §1

SF-268 = test: NCI in vitro DTP human cell line screen, SF-268; conditions: CNS Cancer, 1.00E−5 Molar
Procedure: as §1

SF-295 = test: NCI in vitro DTP human cell line screen, SF-295; conditions: CNS Cancer, 1.00E−5 Molar
Procedure: as §1

SF-539 = test: NCI in vitro DTP human cell line screen, SF-539; conditions: CNS Cancer, 1.00E−5 Molar
Procedure: as §1

SNB-19 = test: NCI in vitro DTP human cell line screen, SNB-19; conditions: CNS Cancer, 1.00E−5 Molar
Procedure: as §1

U251 = test: NCI in vitro DTP human cell line screen, U251; conditions: CNS Cancer, 1.00E−5 Molar
Procedure: as §1

M14 = test: NCI in vitro DTP human cell line screen, M14; conditions: Melanoma, 1.00E−5 Molar
Procedure: as §1

MDA-MB-435 = test: NCI in vitro DTP human cell line screen, MDA-MB-435; conditions: Melanoma, 1.00E−5 Molar
Procedure: as §1

SK-MEL-28 = test: NCI in vitro DTP human cell line screen, SK-MEL-28; conditions: Melanoma, 1.00E−5 Molar
Procedure: as §1

SK-MEL-5 = test: NCI in vitro DTP human cell line screen, SK-MEL-5; conditions: Melanoma, 1.00E−5 Molar
Procedure: as §1

UACC-257 = test: NCI in vitro DTP human cell line screen, UACC-257; conditions: Melanoma, 1.00E−5 Molar
Procedure: as §1

UACC-62 = test: NCI in vitro DTP human cell line screen, UACC-62; conditions: Melanoma, 1.00E−5 Molar
Procedure: as §1

IGROV1 = test: NCI in vitro DTP human cell line screen, IGROV1; conditions: Ovarian Cancer, 1.00E−5 Molar
Procedure: as §1

OVCAR-4 = test: NCI in vitro DTP human cell line screen, OVCAR-4; conditions: Ovarian Cancer, 1.00E−5 Molar
Procedure: as §1

OVCAR-5 = test: NCI in vitro DTP human cell line screen, OVCAR-5; conditions: Ovarian Cancer, 1.00E−5 Molar
Procedure: as §1

OVCAR-8 = test: NCI in vitro DTP human cell line screen, OVCAR-8; conditions: Ovarian Cancer, 1.00E−5 Molar
Procedure: as §1

SK-OV-3 = test: NCI in vitro DTP human cell line screen, SK-OV-3; conditions: Ovarian Cancer, 1.00E−5 Molar
Procedure: as §1

786-0 = test: NCI in vitro DTP human cell line screen, 786-0; conditions: Renal Cancer, 1.00E−5 Molar
Procedure: as §1

ACHN = test: NCI in vitro DTP human cell line screen, ACHN; conditions: Renal Cancer, 1.00E−5 Molar
Procedure: as §1

RXF 393 = test: NCI in vitro DTP human cell line screen, RXF 393; conditions: Renal Cancer, 1.00E−5 Molar
Procedure: as §1

SN12C = test: NCI in vitro DTP human cell line screen, SN12C; conditions: Renal Cancer, 1.00E−5 Molar
Procedure: as §1

TK-10 = test: NCI in vitro DTP human cell line screen, TK-10; conditions: Renal Cancer, 1.00E−5 Molar
Procedure: as §1

UO-31 = test: NCI in vitro DTP human cell line screen, UO-31; conditions: Renal Cancer, 1.00E−5 Molar
Procedure: as §1

PC-3 = test: NCI in vitro DTP human cell line screen, PC-3; conditions: Prostate Cancer, 1.00E−5 Molar
Procedure: as §1

MCF7 = test: NCI in vitro DTP human cell line screen, MCF7; conditions: Breast Cancer, 1.00E−5 Molar
Procedure: as §1

MDA-MB-231/ATCC = test: NCI in vitro DTP human cell line screen, MDA-MB-231/ATCC; conditions: Breast Cancer, 1.00E−5 Molar
Procedure: as §1

HS 578-T = test: NCI in vitro DTP human cell line screen, HS 578-T; conditions: Breast Cancer, 1.00E−5 Molar
Procedure: as §1

BT-549 = test: NCI in vitro DTP human cell line screen, BT-549; conditions: Breast Cancer, 1.00E−5 Molar
Procedure: as §1

T-47D = test: NCI in vitro DTP human cell line screen, T-47D; conditions: Breast Cancer, 1.00E−5 Molar
Procedure: as §1

MDA-MB-468 = test: NCI in vitro DTP human cell line screen, MDA-MB-468; conditions: Breast Cancer, 1.00E−5 Molar
Procedure: as §1

[2] = summary of MTT cell viabilities

In the case of CCCSc1ccc2c(=O)c3ccccc3sc2c1Cl [No. 3, 4-Chloro-3-(propylthio)-9H-thioxanthen-9-one], the “cell viabilities of A control cell lines (MTT assay)” value (A control cell lines) is reported as 84.8 ± 2.95%, the “cell viabilities of A3 cell lines (MTT assay)” value (A3 cell lines) is reported as 103 ± 10.2% and the viability [1] is reported as 88.9 ± 11.1%. The “Growth Percent” value (CCRF-CEM) was 85.29%, the “Growth Percent” value (K562) was 94.26% and the “Growth Percent” value (MOLT-4) was 94.70%. The “Growth Percent” value (RPMI-8226) was 104.20%, the “Growth Percent” value (SR) was 75.26% and the “Growth Percent” value (HOP-62) was 105.09%. For the same molecule, the “Growth Percent” value (HOP-92) was 98.11%, the “Growth Percent” value (NCI-H322M) was 73.70% and the “Growth Percent” value (NCI-H522) was 94.37%. The “Growth Percent” value (COLO 205) was 92.63%, the “Growth Percent” value (HCC-2998) was 100.70% and the “Growth Percent” value (HCT-116) was 61.89%. For the same molecule, the “Growth Percent” value (HCT-15) was 98.58%, the “Growth Percent” value (KM12) was 86.73% and the “Growth Percent” value (SW-620) was 87.67%. For the same molecule, the “Growth Percent” value (SF-268) was 80.00%, the “Growth Percent” value (SF-295) was 82.14% and the “Growth Percent” value (SF-539) was 82.48%. The “Growth Percent” value (SNB-19) was 94.29%, the “Growth Percent” value (U251) was 67.20% and the “Growth Percent” value (M14) was 102.38%. The “Growth Percent” value (MDA-MB-435) was 80.72%, the “Growth Percent” value (SK-MEL-28) was 104.13% and the “Growth Percent” value (SK-MEL-5) was 98.20%. For the same molecule, the “Growth Percent” value (UACC-257) was 98.85%, the “Growth Percent” value (UACC-62) was 84.56% and the “Growth Percent” value (IGROV1) was 91.28%. The “Growth Percent” value (OVCAR-4) was 73.74%, the “Growth Percent” value (OVCAR-5) was 94.79% and the “Growth Percent” value (OVCAR-8) was 83.50%. For the same molecule, the “Growth Percent” value (SK-OV-3) was 104.52%, the “Growth Percent” value (786-0) was 101.51% and the “Growth Percent” value (ACHN) was 74.17%. For the same molecule, the “Growth Percent” value (RXF 393) was 106.97%, the “Growth Percent” value (SN12C) was 85.72% and the “Growth Percent” value (TK-10) was 103.80%. The “Growth Percent” value (UO-31) was 99.45%, the “Growth Percent” value (PC-3) was 94.80% and the “Growth Percent” value (MCF7) was 97.13%. The “Growth Percent” value (MDA-MB-231/ATCC) was 85.71%, the “Growth Percent” value (HS 578-T) was 94.80% and the “Growth Percent” value (BT-549) was 93.64%. For the same molecule, the “Growth Percent” value (T-47D) was 98.14% and the “Growth Percent” value (MDA-MB-468) was 91.53%.
In the case of O=c1c2ccccc2sc2c(Cl)c(SCc3ccccc3)ccc12 [No. 23, 3-(Benzylthio)-4-chloro-9H-thioxanthen-9-one], the “cell viabilities of A control cell lines (MTT assay)” value (A control cell lines; A control, lung cancer cell) is reported as 36.6%, the “inhibition effect on A control cell line (in words)” value (A control cell lines; [2]) is reported as “inhibition effect” and the “cell viabilities of A3 cell lines (MTT assay)” value (A3 cell lines; A3, lung cancer stem cell) is reported as 65.9%. The “inhibition effect on A3 cell line (in words)” value (A3 cell lines; [2]) was “inhibition effect”, the viability ([1]; HEL299, normal fibroblast, read-out: cell viabilities of HEL299 cell lines (MTT assay)) was 82.5% and the “Growth Percent” value (CCRF-CEM) was 59.07%. For the same molecule, the “Growth Percent” value (K562) was 86.95%, the “Growth Percent” value (MOLT-4) was 98.34% and the “Growth Percent” value (RPMI-8226) was 89.98%. For the same molecule, the “Growth Percent” value (SR) was 36.57%, the “Growth Percent” value (HOP-62) was 94.64% and the “Growth Percent” value (HOP-92) was 74.60%. For the same molecule, the “Growth Percent” value (NCI-H322M) was 70.18%, the “Growth Percent” value (NCI-H522) was 95.48% and the “Growth Percent” value (COLO 205) was 63.36%. The “Growth Percent” value (HCC-2998) was 101.78%, the “Growth Percent” value (HCT-116) was 41.74% and the “Growth Percent” value (HCT-15) was 82.20%. The “Growth Percent” value (KM12) was 104.90%, the “Growth Percent” value (SW-620) was 69.53% and the “Growth Percent” value (SF-268) was 100.29%. The “Growth Percent” value (SF-295) was 63.22%, the “Growth Percent” value (SF-539) was 102.89% and the “Growth Percent” value (SNB-19) was 83.57%. For the same molecule, the “Growth Percent” value (U251) was 38.89%, the “Growth Percent” value (M14) was 102.67% and the “Growth Percent” value (MDA-MB-435) was 91.01%. For the same molecule, the “Growth Percent” value (SK-MEL-28) was 119.10%, the “Growth Percent” value (SK-MEL-5) was 99.73% and the “Growth Percent” value (UACC-257) was 109.84%. For the same molecule, the “Growth Percent” value (UACC-62) was 90.92%, the “Growth Percent” value (IGROV1) was 56.63% and the “Growth Percent” value (OVCAR-4) was 15.10%. The “Growth Percent” value (OVCAR-5) was 94.34%, the “Growth Percent” value (OVCAR-8) was 82.11% and the “Growth Percent” value (SK-OV-3) was 94.39%. The “Growth Percent” value (786-0) was 78.53%, the “Growth Percent” value (ACHN) was 26.15% and the “Growth Percent” value (RXF 393) was 106.84%. The “Growth Percent” value (SN12C) was 79.25%, the “Growth Percent” value (TK-10) was 95.49% and the “Growth Percent” value (UO-31) was 66.76%. For the same molecule, the “Growth Percent” value (PC-3) was 83.92%, the “Growth Percent” value (MCF7) was 89.62% and the “Growth Percent” value (MDA-MB-231/ATCC) was 71.98%. The “Growth Percent” value (HS 578-T) was 91.28%, the “Growth Percent” value (BT-549) was 84.98% and the “Growth Percent” value (T-47D) was 82.55%. For the same molecule, the “Growth Percent” value (MDA-MB-468) was 73.81%.
